Test results as given in patent US20020072530A1, “Indole and benzimidazole inhibitors of factor Xa” (priority 2000, published 2002).
Like-named read-outs stand apart in the source and are kept apart here.

Assays:
Format in all cases: biochemical
factor Xa = factor Xa (Homo sapiens, UniProt P00742); assay: Factor Xa amidolytic assay (chromogenic substrate S-2765)
Method: (§1) The compounds of the present invention are dissolved in buffer to give solutions containing concentrations such that assay concentrations range from about 0 to about 100 μM. In the assays for thrombin, prothrombinase and factor Xa, a synthetic chromogenic substrate is added to a solution containing test compound and the enzyme of interest and the residual catalytic activity of that enzyme is determined spectrophotometrically. The IC50 of a compound is determined from the substrate turnover. The IC50 is the concentration of test compound giving about 50% inhibition of the substrate turnover.
(§2) The factor Xa and thrombin assays were performed at room temperature, in 0.02 M Tris-HCl buffer, pH 7.5, containing 0.15 M NaCl. The rates of hydrolysis of the para-nitroanilide substrate S-2765 (Chromogenix) for factor Xa, and the substrate Chromozym TH (Boehringer Mannheim) for thrombin following preincubation of the enzyme with inhibitor for 5 minutes at room temperature, and were determined using the Softmax 96-well plate reader (Molecular Devices), monitored at 405 nm to measure the time dependent appearance of p-nitroaniline.

thrombin = thrombin (Homo sapiens, UniProt P00734); assay: Thrombin amidolytic assay (chromogenic substrate Chromozym TH)
Method: as §1, §2

prothrombinase complex = prothrombinase complex (Homo sapiens, UniProt P00742); assay: Prothrombinase inhibition assay in a plasma free system; settings: table of Examples 6-18; unit inferred; read-out: IIASE (IC50)
prothrombinase complex, sequence (P00742 235-488 limits assumed): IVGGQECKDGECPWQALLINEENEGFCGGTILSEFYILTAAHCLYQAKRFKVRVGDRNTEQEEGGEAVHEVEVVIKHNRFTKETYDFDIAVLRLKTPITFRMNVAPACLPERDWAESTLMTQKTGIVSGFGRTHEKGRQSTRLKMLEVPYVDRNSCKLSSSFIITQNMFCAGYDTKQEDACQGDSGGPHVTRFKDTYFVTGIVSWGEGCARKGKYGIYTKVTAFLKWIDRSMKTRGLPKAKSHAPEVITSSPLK
prothrombinase complex, sequence (P00742 41-179 limits assumed): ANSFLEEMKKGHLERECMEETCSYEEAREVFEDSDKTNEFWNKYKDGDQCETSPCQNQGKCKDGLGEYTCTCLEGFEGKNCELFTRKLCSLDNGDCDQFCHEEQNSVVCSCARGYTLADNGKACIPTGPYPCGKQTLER
prothrombinase complex, sequence (P12259 29-737 partner limits assumed): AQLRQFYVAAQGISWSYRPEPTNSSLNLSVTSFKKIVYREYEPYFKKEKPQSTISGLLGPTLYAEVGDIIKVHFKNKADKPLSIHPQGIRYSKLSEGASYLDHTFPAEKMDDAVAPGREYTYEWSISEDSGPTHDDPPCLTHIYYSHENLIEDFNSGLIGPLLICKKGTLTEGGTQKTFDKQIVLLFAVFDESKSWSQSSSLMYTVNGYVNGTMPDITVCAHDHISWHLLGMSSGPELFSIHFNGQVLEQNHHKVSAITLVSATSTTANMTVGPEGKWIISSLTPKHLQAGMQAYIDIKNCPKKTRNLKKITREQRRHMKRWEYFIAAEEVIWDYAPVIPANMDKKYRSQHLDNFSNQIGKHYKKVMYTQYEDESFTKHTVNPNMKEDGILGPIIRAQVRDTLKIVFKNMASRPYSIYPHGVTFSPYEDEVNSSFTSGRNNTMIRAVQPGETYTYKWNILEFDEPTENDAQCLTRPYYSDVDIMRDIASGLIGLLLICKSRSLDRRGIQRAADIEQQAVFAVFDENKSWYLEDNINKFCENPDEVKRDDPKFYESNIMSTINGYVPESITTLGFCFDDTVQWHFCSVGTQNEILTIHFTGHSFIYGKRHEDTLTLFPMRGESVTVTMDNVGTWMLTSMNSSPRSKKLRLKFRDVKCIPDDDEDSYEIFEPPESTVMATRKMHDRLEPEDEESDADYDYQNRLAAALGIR
prothrombinase complex, sequence (P12259 1574-2224 partner limits assumed): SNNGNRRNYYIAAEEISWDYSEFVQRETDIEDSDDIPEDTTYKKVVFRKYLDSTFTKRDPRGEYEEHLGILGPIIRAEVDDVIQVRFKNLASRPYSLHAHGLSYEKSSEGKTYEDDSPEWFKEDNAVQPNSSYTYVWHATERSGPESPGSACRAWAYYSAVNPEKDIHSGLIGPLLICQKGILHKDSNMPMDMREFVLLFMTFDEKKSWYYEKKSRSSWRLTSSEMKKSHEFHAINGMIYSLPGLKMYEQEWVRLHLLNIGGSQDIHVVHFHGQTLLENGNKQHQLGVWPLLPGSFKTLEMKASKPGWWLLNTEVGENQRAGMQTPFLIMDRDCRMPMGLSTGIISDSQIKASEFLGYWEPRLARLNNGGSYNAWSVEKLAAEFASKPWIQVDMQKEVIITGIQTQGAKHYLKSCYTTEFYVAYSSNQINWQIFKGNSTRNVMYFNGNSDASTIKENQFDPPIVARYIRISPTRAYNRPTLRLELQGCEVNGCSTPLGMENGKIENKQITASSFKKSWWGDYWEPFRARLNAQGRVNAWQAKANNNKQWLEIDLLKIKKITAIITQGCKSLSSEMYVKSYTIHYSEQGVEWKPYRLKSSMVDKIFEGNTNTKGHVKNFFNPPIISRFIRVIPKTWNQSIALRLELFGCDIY
Method: as §1
The prothrombinase inhibition assay was performed in a plasma free system with modifications to the method described by Sinha, U. et al., Thromb. Res., 75, 427-436 (1994). Specifically, the activity of the prothrombinase complex was determined by measuring the time course of thrombin generation using the p-nitroanilide substrate Chromozym TH. The assay consists of preincubation (5 minutes) of selected compounds to be tested as inhibitors with the complex formed from factor Xa (0.5 nM), factor Va (2 nM), phosphatidyl serine:phosphatidyl choline (25:75, 20 μM) in 20 mM Tris-HCl buffer, pH 7.5, containing 0.15 M NaCl, 5 mM CaCl2 and 0.1% bovine serum albumin. Aliquots from the complex-inhibitor mixture were added to prothrombin (1 nM) and Chromozym TH (0.1 mM). The rate of substrate cleavage was monitored at 405 nm for two minutes. Eight different concentrations of inhibitor were assayed in duplicate. A standard curve of thrombin generation by an equivalent amount of untreated complex was used for determination of percent inhibition.

[1] = table of Examples 6-18, unit inferred, read-out: XA (IC50)
[2] = table of Examples 6-18, unit inferred, read-out: IIA (IC50)
[3] = Table 5, read-out: Inhibitory Activity (IC50) Factor Xa
[4] = Table 5, read-out: Inhibitory Activity (IC50) Thrombin

factor Xa, sequence (P00742 235-488 limits assumed): as the sequence (P00742 235-488 limits assumed) above
factor Xa, sequence (P00742 41-179 limits assumed): as the sequence (P00742 41-179 limits assumed) above

Row | IC50 (factor Xa; [1]) [nM] | IC50 (thrombin; [2]) [nM] | IC50 (prothrombinase complex) [nM] | IC50 (factor Xa; [3]) [nM] | IC50 (thrombin; [4]) [nM] | SMILES
1 | 32.2 | 29000 | 375 |  |  | CC(C)c1nc2cc(OC3CCN(C)CC3)ccc2n1Cc1cccc(-c2cccc(C(=N)N)c2)c1 [Example 8]
2 | 1.2 | 805 | 9.67 | 1.2 | 805 | CCn1c(Cn2c(C(C)C)nc3cc(OC4CCN(C(C)=N)CC4)ccc32)cc2ccc(C(=N)N)cc21 [Example 7]
3 | 10.4 |  | 17 |  |  | CC(=N)N1CCC(Oc2ccc3nc(C(C)C)n(Cc4ccc5ccc(C(=N)N)cc5c4)c3c2)CC1 [Example 11]
4 | 658 | 9610 | 9040 |  |  | CC(=N)N1CCC(Oc2ccc3nc(C(C)C)n(Cc4cccc(-c5cccc(C(=N)N)c5)c4)c3c2)CC1 [Example 9]
5 | 18 | 1360 | 167 | 18 | 1300 | CCOC(=O)c1nc2cc(OC3CCN(C(C)=N)CC3)ccc2n1Cc1cc2ccc(C(=N)N)cc2n1CC [Example 18]
6 | 5.73 | 26300 | 2.56 | 5.73 | 26300 | CC(=N)N1CCC(Oc2ccc3c(c2)nc(C(C)C)n3Cc2cccc(-c3cccc(C(=N)N)c3)c2)CC1 [Example 10]
7 | 148 | 16.4 | 139 |  |  | CCn1c(Cn2c(C(C)C)nc3ccc(OC4CCN(C(C)=N)CC4)cc32)cc2ccc(C(=N)N)cc21 [Example 6]
